# Measurements reported in patent US20220112187A1, “PYRAZOLOPYRIDINE AMINE COMPOUNDS FOR THE TREATMENT OF AUTOIMMUNE DISEASE” (Hoffmann-La Roche Inc., priority 2018, published 2022).
# Biological target: T1, human TLR9 (Homo sapiens, UniProt Q9NR96)
# T1 sequence (Q9NR96 26-1032): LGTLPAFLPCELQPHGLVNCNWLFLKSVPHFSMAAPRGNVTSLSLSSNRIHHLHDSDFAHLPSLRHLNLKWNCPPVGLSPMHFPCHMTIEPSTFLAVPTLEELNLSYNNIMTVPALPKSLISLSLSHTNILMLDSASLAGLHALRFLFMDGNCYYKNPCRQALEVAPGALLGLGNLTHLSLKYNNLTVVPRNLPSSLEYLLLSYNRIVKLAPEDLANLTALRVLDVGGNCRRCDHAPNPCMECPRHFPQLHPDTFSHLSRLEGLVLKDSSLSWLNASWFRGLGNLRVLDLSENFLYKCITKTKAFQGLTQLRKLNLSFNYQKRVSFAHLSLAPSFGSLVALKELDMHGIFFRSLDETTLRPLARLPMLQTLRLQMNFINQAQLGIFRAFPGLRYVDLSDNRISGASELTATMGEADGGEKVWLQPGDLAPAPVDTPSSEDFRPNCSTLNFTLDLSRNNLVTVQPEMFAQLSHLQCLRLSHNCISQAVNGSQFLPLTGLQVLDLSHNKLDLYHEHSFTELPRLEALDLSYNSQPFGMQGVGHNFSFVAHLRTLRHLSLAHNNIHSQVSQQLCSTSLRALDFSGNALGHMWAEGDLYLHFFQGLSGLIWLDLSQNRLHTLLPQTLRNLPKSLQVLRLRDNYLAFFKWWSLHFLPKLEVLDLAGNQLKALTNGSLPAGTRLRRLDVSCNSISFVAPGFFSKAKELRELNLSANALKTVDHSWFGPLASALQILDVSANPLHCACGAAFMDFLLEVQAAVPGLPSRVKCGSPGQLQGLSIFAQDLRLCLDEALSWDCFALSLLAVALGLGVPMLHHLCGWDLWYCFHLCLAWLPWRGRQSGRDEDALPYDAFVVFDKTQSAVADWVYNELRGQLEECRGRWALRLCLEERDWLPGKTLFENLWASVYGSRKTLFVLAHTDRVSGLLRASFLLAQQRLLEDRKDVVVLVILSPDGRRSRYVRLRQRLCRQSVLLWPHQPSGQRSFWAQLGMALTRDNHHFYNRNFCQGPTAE
# Assay: HEK293-Blue-hTLR-9 cells assay (SEAP reporter, ODN2006 stimulation)
# Type: cell-based
# Settings: HEK293-Blue-hTLR9 cells, ODN2006 ligand, 20 hrs incubation
# Description: A stable HEK293-Blue-hTLR-9 cell line was purchased from InvivoGen (Cat. #: hkb-htlr9, San Diego, Calif., USA). These cells were originally designed for studying the stimulation of human TLR9 by monitoring the activation of NF-κB. A SEAP (secreted embryonic alkaline phosphatase) reporter gene was placed under the control of the IFN-β minimal promoter fused to five NF-κB and AP-1-binding sites. The SEAP was induced by activating NF-κB and AP-1 via stimulating HEK-Blue hTLR9 cells with TLR9 ligands. Therefore the reporter expression was declined by TLR9 antagonist under the stimulation of a ligand, such as ODN2006 (Cat. #: tlr1-2006-1, Invivogen, San Diego, Calif., USA), for incubation of 20 hrs. The cell culture supernatant SEAP reporter activity was determined using QUANTI-Blue™ kit (Cat. #: rep-qb1, Invivogen, San Diego, Calif., USA) at a wavelength of 640 nm, a detection medium that turns purple or blue in the presence of alkaline phosphatase.
# HEK293-Blue-hTLR9 cells were incubated at a density of 250,000˜450,000 cells/mL in a volume of 170 μL in a 96-well plate in Dulbecco's Modified Eagle's medium (DMEM) containing 4.5 g/L glucose, 50 U/mL penicillin, […], […], 2 mM L-glutamine, 10% (v/v) heat-inactivated fetal bovine serum with addition of 20 μL test compound in a serial dilution in the presence of final DMSO at 1% and 10 μL of 20 uM ODN2006 in above DMEM, perform incubation under 37° C. in a CO2 incubator for 20 hrs. Then 20 μL of the supernatant from each well was incubated with 180 μL Quanti-blue substrate solution at 37° C. for 2 hrs and the absorbance was read at 620-655 nm using a spectrophotorneter. The signalling pathway that TLR9 activation leads to downstream NF-κB activation has been widely accepted, and therefore similar reporter assay was modified for evaluating TLR9 antagonist.
row,SMILES,IC50 [nM]
1,"C[C@@H]1CN(c2ccc(C#N)n3nccc23)C[C@H](CN2C[C@H]3CC[C@@H](N(C)C)[C@H]3C2)O1 (racemic) [Example 75, 4-[(2S,6R)-2-[[4-(dimethylamino)-3,3a,4,5,6,6a-hexahydro-1H-cyclopenta[c]pyrrol-2-yl]methyl]-6-methyl-morpholin-4-yl]pyrazolo[1,5-a]pyridine-7-carbonitrile]",290
2,"CC1CNCCN1C[C@H]1CN(c2ccc(C#N)n3nccc23)C[C@@H](C)O1 (single isomer, unassigned) [Example 50A]",16000
3,"CC1CNCCN1C[C@H]1CN(c2ccc(C#N)n3nccc23)C[C@@H](C)O1 (single isomer, unassigned) [Example 50B]",24000
4,"C[C@@H]1CN(c2ccc(C#N)n3nccc23)C[C@H](CN2CCC(N3CCN(C)CC3)CC2)O1 [Example 1, 4-[(2R,6S)-2-methyl-6-[[4-(4-methylpiperazin-1-yl)-1-piperidyl]methyl]morpholin-4-yl]pyrazolo[1,5-a]pyridine-7-carbonitrile]",130
5,"C[C@@H]1CN(c2ccc(C#N)n3nccc23)C[C@H](CN2CCC3(CCNCC3)CC2)O1 [Example 3, 4-[(2S,6R)-2-(3,9-diazaspiro[5.5]undecan-3-ylmethyl)-6-methyl-morpholin-4-yl]pyrazolo[1,5-a]pyridine-7-carbonitrile]",90
6,"C[C@@H]1CN(c2ccc(C#N)n3nccc23)C[C@H](CN2CCC(N3CCCCCC3)CC2)O1 [Example 4, 4-[(2S,6R)-2-[[4-(azepan-1-yl)-1-piperidyl]methyl]-6-methyl-morpholin-4-yl]pyrazolo[1,5-a]pyridine-7-carbonitrile]",280
7,"C[C@@H]1CN(c2ccc(C#N)n3nccc23)C[C@H](CN2CCNCC2)O1 [Example 5, 4-[(2R,6S)-2-methyl-6-(piperazin-1-ylmethyl)morpholin-4-yl]pyrazolo[1,5-a]pyridine-7-carbonitrile]",890
8,"C[C@@H]1CN(c2ccc(C#N)n3nccc23)C[C@H](CN2CCC3(CCNC3)C2)O1 (stereo partly drawn) [Example 6, 4-[(2S,6R)-2-(2,7-diazaspiro[4.4]nonan-2-ylmethyl)-6-methyl-morpholin-4-yl]pyrazolo[1,5-a]pyridine-7-carbonitrile]",31
9,"C[C@@H]1CN(c2ccc(C#N)n3nccc23)C[C@H](CNC2CCN(C)CC2)O1 [Example 7, 4-[(2R,6S)-2-methyl-6-[[(1-methyl-4-piperidyl)amino]methyl]morpholin-4-yl]pyrazolo[1,5-a]pyridine-7-carbonitrile]",320
10,"C[C@@H]1CN(c2ccc(C#N)n3nccc23)C[C@H](CN2CC3(CCCNC3)C2)O1 [Example 10, 4-[(2S,6R)-2-(2,8-diazaspiro[3.5]nonan-2-ylmethyl)-6-methyl-morpholin-4-yl]pyrazolo[1,5-a]pyridine-7-carbonitrile]",80
11,"C[C@@H]1CN(c2ccc(C#N)n3nccc23)C[C@H](CN2CC3(CC(N)C3)C2)O1 [Example 11, 4-[(2S,6R)-2-[(6-amino-2-azaspiro[3.3]heptan-2-yl)methyl]-6-methyl-morpholin-4-yl]pyrazolo[1,5-a]pyridine-7-carbonitrile]",97
12,"C[C@@H]1CN(c2ccc(C#N)n3nccc23)C[C@H](CN2CCC(CN)CC2)O1 [Example 12, 4-[(2S,6R)-2-[[4-(aminomethyl)-1-piperidyl]methyl]-6-methyl-morpholin-4-yl]pyrazolo[1,5-a]pyridine-7-carbonitrile]",200
13,"C[C@@H]1CN(c2ccc(C#N)n3nccc23)C[C@H](CN2CCC(CCN)CC2)O1 [Example 13, 4-[(2S,6R)-2-[[4-(2-aminoethyl)-1-piperidyl]methyl]-6-methyl-morpholin-4-yl]pyrazolo[1,5-a]pyridine-7-carbonitrile]",270
14,"C[C@@H]1CN(c2ccc(C#N)n3nccc23)C[C@H](CN2CCN(C(=O)CN)CC2)O1 [Example 14, 4-[(2S,6R)-2-[[4-(2-aminoacetyl)piperazin-1-yl]methyl]-6-methyl-morpholin-4-yl]pyrazolo[1,5-a]pyridine-7-carbonitrile]",3000
15,"C[C@@H]1CN(c2ccc(C#N)n3nccc23)C[C@H](CN2CCN(C)CC2)O1 [Example 15, 4-[(2R,6S)-2-methyl-6-[(4-methylpiperazin-1-yl)methyl]morpholin-4-yl]pyrazolo[1,5-a]pyridine-7-carbonitrile]",23000
16,"C[C@@H]1CN(c2ccc(C#N)n3nccc23)C[C@H](CN2CCC(N3CCCCC3)CC2)O1 [Example 16, 4-[(2R,6S)-2-methyl-6-[[4-(1-piperidyl)-1-piperidyl]methyl]morpholin-4-yl]pyrazolo[1,5-a]pyridine-7-carbonitrile]",520
17,"C[C@@H]1CN(c2ccc(C#N)n3nccc23)C[C@H](CN2CCC(N)CC2)O1 [Example 17, 4-[(2S,6R)-2-[(4-amino-1-piperidyl)methyl]-6-methyl-morpholin-4-yl]pyrazolo[1,5-a]pyridine-7-carbonitrile]",180
18,"C[C@@H]1CN(c2ccc(C#N)n3nccc23)C[C@H](CN2CCC3(CCNCC3)C2)O1 [Example 18, 4-[(2S,6R)-2-(2,8-diazaspiro[4.5]decan-2-ylmethyl)-6-methyl-morpholin-4-yl]pyrazolo[1,5-a]pyridine-7-carbonitrile]",89
19,"C[C@@H]1CN(c2ccc(C#N)n3nccc23)C[C@H](CN2CCC3(CCNC3)CC2)O1 [Example 19, 4-[(2S,6R)-2-(2,8-diazaspiro[4.5]decan-8-ylmethyl)-6-methyl-morpholin-4-yl]pyrazolo[1,5-a]pyridine-7-carbonitrile]",92
20,"C[C@@H]1CN(c2ccc(C#N)n3nccc23)C[C@H](CN2CC3(CCNC3)CC2=O)O1 (stereo partly drawn) [Example 20, 4-[(2R,6R)-2-methyl-6-[(3-oxo-2,7-diazaspiro[4.4]nonan-2-yl)methyl]morpholin-4-yl]pyrazolo[1,5-a]pyridine-7-carbonitrile]",12000
21,"C[C@@H]1CN(c2ccc(C#N)n3nccc23)C[C@H](CN2CCC3(CCNC3)C2=O)O1 (stereo partly drawn) [Example 21, 4-[(2R,6R)-2-methyl-6-[(1-oxo-2,7-diazaspiro[4.4]nonan-2-yl)methyl]morpholin-4-yl]pyrazolo[1,5-a]pyridine-7-carbonitrile]",16000
22,"C[C@@H]1CN(c2ccc(C#N)n3nccc23)C[C@H](CN2CC3CNCC3C2)O1 (stereo partly drawn) [Example 22, 4-[(2S,6R)-2-(2,3,3a,4,6,6a-hexahydro-1H-pyrrolo[3,4-c]pyrrol-5-ylmethyl)-6-methyl-morpholin-4-yl]pyrazolo[1,5-a]pyridine-7-carbonitrile]",180
23,"C[C@@H]1CN(c2ccc(C#N)n3nccc23)C[C@H](CN2CCCC3(CCCNC3)C2)O1 (stereo partly drawn) [Example 23, 4-[(2S,6R)-2-(2,8-diazaspiro[5.5]undecan-2-ylmethyl)-6-methyl-morpholin-4-yl]pyrazolo[1,5-a]pyridine-7-carbonitrile]",250
24,"C[C@@H]1CN(c2ccc(C#N)n3nccc23)C[C@H](CN2CC3(CCNCC3)C2)O1 [Example 24, 4-[(2S,6R)-2-(2,7-diazaspiro[3.5]nonan-2-ylmethyl)-6-methyl-morpholin-4-yl]pyrazolo[1,5-a]pyridine-7-carbonitrile]",100
